The source of these data is patent publication US9776990B2, “Isoindolone derivatives” (AbbVie Inc., priority 2012, dated 2017).

The Ki is the dissociation constant of the complex between target and ligand, obtained from inhibition or displacement. A lower Ki goes with higher affinity.

Where two headings read alike, the source gives them in different places.

For one assay, the target named is BRD4 (BDI_K57-E168) (Homo sapiens (Human), UniProt O60885). As to the kind of experiment: TR-FRET bromodomain binding assay, BRD4 first bromodomain. Particulars: His-tagged BD1, 100 nM Alexa647 probe. As for the experimental part: (§1) A time-resolved fluorescence resonance energy transfer (TR-FRET) assay was used to determine the affinities of compounds of the Examples listed in Table 1 for each bromodomain of BRD4. His-tagged first (BD1: amino acids K57-E168) and second (BD2: amino acids E352-E168) bromodomains of BRD4 were expressed and purified. An Alexa647-labeled BET-inhibitor was used as the fluorescent probe in the assay.
(§2) Compound dilution series were prepared in DMSO via a 3-fold serial dilution from 2.5 mM to 42 nM. Compounds were then diluted 6:100 in assay buffer (20 mM Sodium Phosphate, pH 6.0, 50 mM NaCl, 1 mM EDTA, 0.01% Triton X-100, 1 mM DTT) to yield 3× working solutions. Six microliters (μL) of the working solution was then transferred to white, low-volume assay plates (Costar #3673). A 1.5× assay mixture containing His-tagged bromodomain, Europium-conjugated anti-His antibody (Invitrogen PV5596) and the Alexa-647-conjugated probe molecule was also prepared. Twelve μL of this solution were added to the assay plate to reach a final volume of 18 μL. The final concentration of 1× assay buffer contains 2% DMSO, 50 μM−0.85 nM compound, 8 nM bromodomain, 1 nM antibody and 100 or 30 nM probe (for BDI or BDII, respectively). After a one-hour incubation at room temperature, TR-FRET ratios were determined using an Envision multilabel plate reader (Ex 340, Em 495/520).
(§3) TR-FRET data were normalized to the means of 24 no-compound controls (“high”) and 8 controls containing 1 μM un-labeled probe (“low”). Percent inhibition was plotted as a function of compound concentration and the data were fit with the 4 parameter logistic equation to obtain IC50s Inhibition constants (Ki) were calculated from the IC50s, probe Kd and probe concentration. Typical Z′ values were between 0.65 and 0.75. The minimum significant ratio was determined to evaluate assay reproducibility (Eastwood et al., (2006) J Biomol Screen, 11: 253-261). The MSR was determined to be 2.03 for BDI and 1.93 for BDII, and a moving MSR (last six run MSR overtime) for both BDI and BDII was typically <3.
In general terms: TR-FRET usually uses a lanthanide donor and a delayed reading to cut background.

The next assay deals with BRD4 (BDII_E352-M457) (Homo sapiens (Human), UniProt O60885). As to the kind of experiment: TR-FRET bromodomain binding assay, BRD4 second bromodomain. Particulars: His-tagged BD2, 30 nM Alexa647 probe. As for the experimental part: as §1, §2, §3
Assay [1] relates to breast cancer cell line MX-1. Kind of assay: MX-1 cell line proliferation assay (3-day, Cell Titer Glo). Type of assay: cell-based, human. Particulars: 72 hours, read-out: Cellular proliferation: EC50. As for the experimental part: The impact of compounds of the Examples on cancer cell proliferation was determined using the breast cancer cell line MX-1 (ATCC) in a 3-day proliferation assay. MX-1 cells were maintained in RPMI supplemented with 10% FBS at 37 C.° and an atmosphere of 5% CO2. For compound testing, MX-1 cells were plated in 96-well black bottom plates at a density of 5000 cells/well in 90 μl of culture media and incubated at 37° overnight to allow cell adhesion and spreading. Compound dilution series were prepared in DMSO via a 3-fold serial dilution from 3 mM to 0.1 μM. The DMSO dilution series were then diluted 1:100 in phosphate buffered saline, and 10 μL of the resulted solution were added to the appropriate wells of the MX-1 cell plate. The final compound concentrations in the wells were 3, 1, 0.3, 0.1, 0.03, 0.01, 0.003, 0.001, 0.0003 and 0.0001 μM.
Luminescence readings from the Cell Titer Glo assay were normalized to the DMSO treated cells and analyzed using the GraphPad Prism software with sigmoidal curve fitting to obtain EC50s. The minimum significant ratio (MSR) was determined to evaluate assay reproducibility (Eastwood et al., (2006) J Biomol Screen, 11: 253-261).
(In general: In ATP-based viability assays light output follows the ATP content of the culture.)

The subject of assay [2] is LPS induced IL-6 production. As to the kind of experiment: LPS (lipopolysaccharide) induced IL-6 production mouse assay. Type of assay: in vivo. Particulars: mice, 3 mg/kg (PO), one hour before LPS, serum 2 hours after LPS. As for the experimental part:
Compounds of the Examples listed in Table 8 were assayed for their ability to inhibit LPS (lipopolysaccharide) induced IL-6 production in mice. Severe combined immunodeficient female mice (8 per group) received an intraperitoneal challenge of lipopolysaccharide (2.5 mg/kg, L2630 E. coli 0111:B4) one hour after oral administration (PO) or intraperitoneal administration (IP) of compounds in a solution of 2% ethanol, 5% Tween-80, 20% PEG-400 and 73% (0.2% hydroxypropylmethylcellulose in water). Mice were euthanized 2 hours after lipopolysaccharide injection, blood was removed by cardiac puncture, and then the serum harvested from the blood samples was frozen at −80° C. On the day of the assay the serum samples were brought to room temperature and then diluted 1:20 in phosphate-buffered saline containing 2% bovine serum albumin. Interleukin-6 measurements were performed using a cytokine assay from Meso Scale Discovery (Gaithersburg, Md.) for mouse serum analysis according to the manufacturer's protocol and read on a SECTOR Imager 6000 (Meso Scale Discovery, Gaithersburg, Md.) instrument. Statistical analysis was performed using Prism software (version 5.0) incorporating Dunnett's one way ANOVA. The IL-6 mean and standard deviation of the group of vehicle treated animals were compared with the IL-6 mean and standard deviation of the group treated with drug. A p value <0.05 means that there is less than a 5% probability that the mean values in the two groups are equal.

Turning to `Cc1[nH]c(-c2cc(NS(C)(=O)=O)ccc2Sc2ccccc2)c2c1C(=O)CCC2` [Example 44, N-[3-(3-methyl-4-oxo-4,5,6,7-tetrahydro-2H-isoindol-1-yl)-4-(phenylsulfanyl)phenyl]methanesulfonamide], the results for the Ki on BRD4 (BDI_K57-E168) and at BRD4 (BDII_E352-M457) were 67 nM and 37 nM, respectively. Besides, the EC50 in assay [1] (Homo sapiens, MX1, MX-1 cells) turned out to be 645 nM.
In the same order, the values of `Cc1[nH]c(-c2cc(N)ccc2Oc2ccc(F)cc2F)c2c1C(=O)CCC2` [Example 45, 1-[5-amino-2-(2,4-difluorophenoxy)phenyl]-3-methyl-2,5,6,7-tetrahydro-4H-isoindol-4-one] are 40 nM, 198 nM and 329 nM.
With `CCS(=O)(=O)Nc1ccc(Oc2ccc(F)cc2F)c(-c2[nH]c(C)c3c2CCCC3=O)c1` [Example 47, N-[4-(2,4-difluorophenoxy)-3-(3-methyl-4-oxo-4,5,6,7-tetrahydro-2H-isoindol-1-yl)phenyl]ethanesulfonamide], the Ki was 11 nM at BRD4 (BDI_K57-E168) and 19 nM at BRD4 (BDII_E352-M457). Moreover, the EC50 in assay [1] (Homo sapiens, MX1, MX-1 cells) worked out at 193 nM. In addition, the “% inhibition of LPS induced IL-6 production” value in assay [2] is 33.0 at 3 mg/kg (PO) %.
As for `Cc1[nH]c(-c2cc(NS(=O)(=O)CC(F)(F)F)ccc2Oc2ccc(F)cc2F)c2c1C(=O)CCC2` [Example 48, N-[4-(2,4-difluorophenoxy)-3-(3-methyl-4-oxo-4,5,6,7-tetrahydro-2H-isoindol-1-yl)phenyl]-2,2,2-trifluoromethanesulfonamide], the figures for the Ki on BRD4 (BDI_K57-E168) and on BRD4 (BDII_E352-M457) were 68 nM and 43 nM, respectively. Besides, the EC50 in assay [1] (MX-1 cells) came out at 564 nM.
Regarding `Cc1[nH]c(-c2cc(NS(=O)(=O)N(C)C)ccc2Oc2ccc(F)cc2F)c2c1C(=O)CCC2` [Example 49, N′-[4-(2,4-difluorophenoxy)-3-(3-methyl-4-oxo-4,5,6,7-tetrahydro-2H-isoindol-1-yl)phenyl]-N,N-dimethylsulfuric Diamide], the Ki on BRD4 (BDI_K57-E168) is 43 nM; at BRD4 (BDII_E352-M457), 192 nM. The EC50 in assay [1] (Homo sapiens, MX1, MX-1 cells) worked out at 364 nM.
Turning to `CC(=O)Nc1ccc(Oc2ccc(F)cc2F)c(-c2[nH]c(C)c3c2CCCC3=O)c1` [Example 50, N-[4-(2,4-difluorophenoxy)-3-(3-methyl-4-oxo-4,5,6,7-tetrahydro-2H-isoindol-1-yl)phenyl]acetamide], the values for the Ki on BRD4 (BDI_K57-E168) and at BRD4 (BDII_E352-M457) were 71 nM and 551 nM, respectively. For the same molecule, the EC50 in assay [1] (Homo sapiens, MX1, MX-1 cells) is 609 nM.
For `CCS(=O)(=O)Nc1ccc(OC2CCC(F)(F)CC2)c(-c2[nH]c(C)c3c2CCCC3=O)c1` [Example 52, N-{4-[(4,4-difluorocyclohexyl)oxy]-3-(3-methyl-4-oxo-4,5,6,7-tetrahydro-2H-isoindol-1-yl)phenyl}ethanesulfonamide] the same measures were 9 nM, 88 nM and 184 nM.
In the same order, the values of `CCNC(=O)c1ccc(Oc2ccccc2)c(-c2[nH]c(C)c3c2CCCC3=O)c1` [Example 55, N-ethyl-3-(3-methyl-4-oxo-4,5,6,7-tetrahydro-2H-isoindol-1-yl)-4-phenoxybenzamide] are 77 nM, 511 nM and 1390 nM.
In the same order, the values of `Cc1[nH]c(-c2cc(C(=O)NCC3CCCO3)ccc2Oc2ccccc2)c2c1C(=O)CCC2` (stereo not shown) [Example 56, 3-(3-methyl-4-oxo-4,5,6,7-tetrahydro-2H-isoindol-1-yl)-4-phenoxy-N-(tetrahydrofuran-2-ylmethyl)benzamide] are 68 nM, 653 nM and 734 nM.
On to `Cc1[nH]c(-c2cccc(NS(C)(=O)=O)c2)c2c1C(=O)CC(C)(C)C2` [Example 64, N-[3-(3,6,6-trimethyl-4-oxo-4,5,6,7-tetrahydro-2H-isoindol-1-yl)phenyl]methanesulfonamide], for which the figures for the Ki at BRD4 (BDI_K57-E168) and at BRD4 (BDII_E352-M457) were 576 nM and 409 nM, respectively. In addition, the EC50 in assay [1] (Homo sapiens, MX1, MX-1 cells) is above 3000 nM.
Regarding `Cc1[nH]c(-c2ccccc2Oc2ccccc2)c2c1C(=O)CC(C)C2` (stereo not shown) [Example 65, 3,6-dimethyl-1-(2-phenoxyphenyl)-2,5,6,7-tetrahydro-4H-isoindol-4-one], the Ki is 184 nM on BRD4 (BDI_K57-E168) and 382 nM at BRD4 (BDII_E352-M457). For the same molecule, the EC50 in assay [1] (Homo sapiens, MX1, MX-1 cells) came out at 1780 nM.
For `Cc1[nH]c(-c2cc(NS(C)(=O)=O)ccc2Oc2ccccc2)c2c1C(=O)CC(C)C2` (stereo not shown) [Example 67, N-[3-(3,6-dimethyl-4-oxo-4,5,6,7-tetrahydro-2H-isoindol-1-yl)-4-phenoxyphenyl]methanesulfonamide] the same measures were 12 nM, 68 nM and 110 nM.
With `Cc1[nH]c(-c2cc(NS(C)(=O)=O)ccc2Oc2ccccc2)c2c1C(=O)CC(CC(C)C)C2` (stereo not shown) [Example 69, N-{3-[3-methyl-6-(2-methylpropyl)-4-oxo-4,5,6,7-tetrahydro-2H-isoindol-1-yl]-4-phenoxyphenyl}methanesulfonamide], the Ki was 151 nM on BRD4 (BDI_K57-E168) and 2070 nM at BRD4 (BDII_E352-M457). Further, the EC50 in assay [1] (Homo sapiens, MX1, MX-1 cells) turned out to be 600 nM.
As to `Cc1[nH]c(-c2cc(NS(C)(=O)=O)ccc2Oc2ccccc2)c2c1C(=O)CC(C(C)C)C2` (stereo not shown) [Example 71, N-{3-[3-methyl-4-oxo-6-(propan-2-yl)-4,5,6,7-tetrahydro-2H-isoindol-1-yl]-4-phenoxyphenyl}methanesulfonamide], the Ki was determined as 375 nM at BRD4 (BDI_K57-E168) and 926 nM at BRD4 (BDII_E352-M457). Also, the EC50 in assay [1] (Homo sapiens, MX1, MX-1 cells) is 950 nM.
